Test results: the supplement of paper PMC10307832

What was measured:
Assay in all cases: relative viability (nuclei count vs DMSO), 5 days (fraction); higher = more cells survive
[1] = compound: CC(=O)O[C@@]12CO[C@@H]1C[C@H](O)[C@@]1(C)C(=O)[C@H](O)C3=C(C)[C@@H](OC(=O)[C@H](O)[C@@H](NC(=O)OC(C)(C)C)c4ccccc4)C[C@@](O)([C@@H](OC(=O)c4ccccc4)[C@H]21)C3(C)C [Docetaxel]
Outline: (§1)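 Vehicle-anchored 1536-well plates of lung cancer cell lines, held overnight at 37 °C, were pinned with five library-drug doses (not always all listed) spaced by √10. No medium change followed over the next 5 days, after which the cells were fixed, permeabilised and Hoechst-stained together and imaged at 4×. Nuclei were counted with MetaXpress, and viability is treated-well nuclei over vehicle-well nuclei, taken as a median across plates. Plates passed with control CV below 25% and at least one doubling.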

[2] = compound: COc1cc2nccc(Oc3ccc(NC(=O)Nc4cc(C)on4)c(Cl)c3)c2cc1OC [Tivozanib]
Outline: as §1

[3] = compound: Cc1cnc(-c2cnc(NCCNc3ccc(C#N)cn3)nc2-c2ccc(Cl)cc2Cl)[nH]1
Outline: as §1

[4] = compound: Cc1sc2c(c1C)C(c1ccc(Cl)cc1)=N[C@@H](CC(=O)OC(C)(C)C)c1nnc(C)n1-2 [JQ1]
Outline: as §1

[5] = compound: Nc1ccn([C@@H]2O[C@H](CO)[C@@H](O)[C@@H]2O)c(=O)n1 [Cytarabine]
Outline: as §1

[6] = compound: O=C(O)CCCCC(CCSCc1ccccc1)SCc1ccccc1 [CPI-613]
Outline: as §1

[7] = compound: O=c1[nH]c2ccccc2n1C1CCN(CCCC(c2ccc(F)cc2)c2ccc(F)cc2)CC1 [Pimozide]
Outline: as §1

Cell Line | relative viability ([1]; 0.0002 µM) | relative viability ([1]; 0.000632 µM) | relative viability ([1]; 0.002 µM) | relative viability ([1]; 0.006325 µM) | relative viability ([1]; 0.02 µM) | relative viability ([2]; 0.005 µM) | relative viability ([2]; 0.01581 µM) | relative viability ([2]; 0.05 µM) | relative viability ([2]; 0.1581 µM) | relative viability ([2]; 0.5 µM) | relative viability ([3]; 0.08 µM) | relative viability ([3]; 0.253 µM) | relative viability ([3]; 0.8 µM) | relative viability ([3]; 2.53 µM) | relative viability ([4]; 0.04 µM) | relative viability ([4]; 0.1265 µM) | relative viability ([4]; 0.4 µM) | relative viability ([4]; 1.265 µM) | relative viability ([4]; 4 µM) | relative viability ([5]; 0.005 µM) | relative viability ([5]; 0.01581 µM) | relative viability ([5]; 0.05 µM) | relative viability ([5]; 0.1581 µM) | relative viability ([5]; 0.5 µM) | relative viability ([6]; 5 µM) | relative viability ([6]; 15.81 µM) | relative viability ([6]; 50 µM) | relative viability ([6]; 158.11 µM) | relative viability ([6]; 500 µM) | relative viability ([7]; 0.08 µM) | relative viability ([7]; 0.253 µM) | relative viability ([7]; 0.8 µM) | relative viability ([7]; 2.53 µM) | relative viability ([7]; 8 µM)
NCI-H1975 | 0.916 | 0.702 | 0.344 | 0.213 | 0.168 | 0.842 | 0.922 | 0.991 | 0.852 | 0.786 | 0.859 | 0.888 | 0.813 | 0.647 | 0.953 | 0.643 | 0.782 | 0.597 | 0.53 | 1.07 | 1.08 | 0.987 | 0.546 | 0.35 | 0.919 | 0.901 | 0.984 | 0.87 | 0.075 | 0.916 | 0.941 | 0.92 | 0.966 | 0.775
NCI-H1793 | 1.01 | 0.852 | 0.351 | 0.285 | 0.186 | 0.84 | 0.787 | 0.952 | – | 0.977 | 1.07 | 0.879 | 0.876 | 1.02 | 0.802 | 0.785 | 0.674 | 0.778 | 0.78 | 0.958 | 0.884 | 0.818 | 0.691 | 0.521 | 0.854 | 0.705 | 0.994 | 0.494 | 0.0301 | 0.746 | 0.846 | 0.675 | 0.947 | 0.711
NCI-H838 | 0.937 | 0.867 | 0.393 | 0.197 | 0.175 | 0.957 | 0.969 | 1.01 | 0.736 | 0.979 | 0.999 | 0.93 | 1.05 | 1.16 | 0.961 | 0.59 | 0.792 | 0.436 | 0.343 | 0.97 | 0.964 | 0.743 | 0.423 | 0.293 | 0.948 | 0.864 | 0.883 | 0.649 | 0.0946 | 0.953 | 0.998 | 0.93 | 0.927 | 0.959
NCI-H2087 | 0.947 | 0.5 | 0.223 | 0.182 | 0.107 | 0.988 | 0.972 | 0.956 | 1.28 | 0.995 | 1.12 | 0.723 | 1.05 | 0.886 | 0.996 | 0.661 | 0.963 | 0.581 | 0.451 | 0.946 | 0.888 | 0.722 | 0.614 | 0.36 | 0.971 | 1.09 | 0.954 | 0.307 | 0.0055 | 1.11 | 1.05 | – | 1.05 | 0.773
NCI-H1395 | 0.933 | 0.861 | 0.676 | 0.39 | 0.268 | 0.738 | 1.04 | 1 | 0.736 | 0.677 | 1.08 | 0.84 | 0.818 | 0.837 | 0.849 | 0.734 | 0.702 | 0.516 | 0.547 | 0.826 | 0.775 | 0.567 | 0.447 | 0.354 | 0.993 | 0.806 | 0.897 | 0.84 | 0.8 | 0.918 | 0.84 | 0.822 | 0.878 | 0.918
HCC-15 | 0.8 | 0.536 | 0.229 | 0.257 | 0.149 | 0.962 | 0.922 | 0.949 | 1.07 | 0.89 | 1.06 | 0.686 | 0.953 | 0.892 | 0.97 | – | 0.859 | 0.656 | 0.6 | 1.07 | 0.988 | 0.966 | 0.828 | 0.547 | 0.96 | 0.914 | 0.908 | 0.465 | 0.264 | 1.05 | 0.965 | 0.725 | 0.961 | 0.9
NCI-H1755 | 0.984 | 0.941 | 0.724 | 0.459 | 0.411 | 0.991 | 0.961 | 1.01 | 1.02 | 0.917 | 1.04 | 0.831 | 1.03 | 1.08 | 0.984 | 0.819 | 1.04 | 0.966 | 0.836 | 1.04 | 0.97 | 0.864 | 0.548 | 0.404 | 0.937 | 0.958 | 0.942 | 0.973 | 0.49 | 0.916 | 0.967 | 0.946 | 0.929 | 0.892
COR-L23 | 0.963 | 0.904 | 0.514 | 0.184 | 0.141 | 1.01 | 0.989 | 1.06 | 1.09 | 0.841 | 1.08 | 0.897 | 1.04 | 0.934 | 0.965 | 0.848 | 1.02 | 0.54 | 0.549 | 1.06 | 0.874 | 0.656 | 0.234 | 0.172 | 1 | 0.946 | 1.03 | 0.415 | 0.0149 | 1.08 | 1.03 | 0.949 | 0.981 | 0.912
RERF-LC-KJ | 0.94 | 0.79 | 0.335 | 0.218 | 0.173 | 0.951 | 0.939 | 1.06 | 0.935 | 0.969 | 1.1 | 0.906 | 0.89 | 1 | 0.985 | 1.01 | 0.967 | 0.624 | 0.423 | 0.869 | 0.907 | 0.77 | 0.567 | 0.435 | 0.978 | 0.883 | 1.02 | 0.891 | 0.865 | 0.959 | 0.887 | 0.867 | 0.869 | 0.792
ChaGo-K-1 | 1 | 0.691 | 0.636 | 0.349 | 0.196 | 0.979 | 0.956 | 0.97 | 0.909 | 0.921 | 0.987 | 0.854 | 1.02 | 0.939 | 0.93 | 0.845 | 0.956 | 0.901 | 0.743 | 0.687 | 0.681 | 0.509 | 0.383 | 0.283 | 0.918 | 0.981 | 0.975 | 0.705 | 0.411 | 1.08 | 0.95 | 0.975 | 0.96 | 0.961
IA-LM | 0.704 | 0.231 | 0.131 | 0.0652 | 0.0513 | 0.865 | 1.01 | 0.909 | 0.767 | 0.845 | 1.02 | 0.8 | 1.02 | 0.916 | 0.907 | 0.419 | 0.165 | 0.11 | 0.085 | 0.962 | 0.814 | 0.662 | 0.38 | 0.226 | 0.818 | 0.779 | 0.85 | 0.525 | 0.671 | 0.951 | 1.02 | 0.929 | 1.02 | 0.966
NCI-H596 | 0.89 | 0.89 | 0.632 | 0.518 | 0.273 | 0.926 | 0.963 | 1.13 | – | 0.99 | 0.995 | 0.972 | 0.754 | 1.07 | 1.06 | 0.923 | 0.747 | 0.412 | 0.286 | 0.956 | 0.841 | 0.798 | 0.689 | 0.551 | 0.956 | 0.902 | 1.04 | 0.781 | 0.0741 | 0.993 | 0.935 | 0.882 | 0.952 | 0.847
LCLC-97TM1 | 0.88 | 0.617 | 0.3 | 0.104 | 0.0757 | 0.953 | 1.04 | 1.05 | 0.927 | 0.919 | 0.977 | 0.846 | 0.907 | 0.908 | 1 | 0.759 | 0.803 | 0.491 | 0.194 | 0.99 | 0.787 | 0.296 | 0.143 | 0.129 | 0.964 | 0.993 | 0.985 | 0.97 | 0.629 | 0.984 | 0.906 | 0.916 | 0.953 | 0.653
EBC-1 | 0.89 | 0.693 | 0.241 | 0.25 | 0.152 | 0.951 | 0.96 | 0.979 | 0.929 | 0.918 | 0.982 | 0.914 | 0.975 | 0.987 | 0.922 | 0.596 | 0.372 | 0.138 | 0.141 | 0.817 | 0.816 | 0.623 | 0.478 | 0.336 | 0.962 | 0.823 | 0.828 | 0.661 | 0.556 | 0.996 | 0.94 | 0.899 | 0.901 | 0.942
HCC-827 | 0.943 | 1.07 | 0.916 | 0.431 | 0.328 | 1.01 | 1.05 | 1.1 | 1.09 | 1 | 1.05 | – | 1.02 | 1.02 | 1.05 | – | 0.988 | 1.11 | 0.883 | 0.765 | 0.568 | 0.417 | 0.225 | 0.196 | 0.993 | 1.02 | 1.11 | 0.908 | 0.669 | – | 1.04 | 0.955 | 1.02 | 1.01
NCI-H647 | 0.739 | 0.43 | 0.209 | 0.148 | 0.0799 | 0.843 | 0.98 | 0.981 | 0.844 | 0.826 | 1.06 | 0.862 | 0.931 | 0.934 | 0.894 | 0.569 | 0.527 | 0.292 | 0.121 | 0.63 | 0.323 | 0.265 | 0.111 | 0.0762 | 0.913 | 0.778 | 0.871 | 0.499 | 0.239 | 0.91 | 0.981 | 0.848 | 0.857 | 0.806
